From paper PMC11653107, “Development of a UPLC-MS/MS method for the determination of sulfatinib and its no interaction with myricetin in rats” (Frontiers in Pharmacology, 2024)
Like-named read-outs stand apart in the source and are kept apart here. Values belong to the molecule of their own block, whether it stands above or below them.

Experiments:
[1] = Pharmacokinetics of sulfatinib in rats, DDI study with myricetin (UPLC-MS/MS of plasma); assay type: in vivo, Sprague-Dawley (SD) rats
Experimental: In the present assay, a Waters Xevo TQS triple quadrupole tandem mass spectrometer (Milford, MA, United States), connected to a Waters Acquity UPLC I class system (Milford, MA, United States) was applied in the method. The parameters of mass spectrometry were determined as follows before analysis: capillary voltage 2.0 kV, desolvation gas 1000 L/h, collision gas 0.15 mL/min, desolvation temperature 600°C and conical gas 150 L/h. Seperations of sulfatinib and IS were done on an Acquity UPLC BEH C18 (2.1 mm × 50 mm, 1.7 µm) set at 40°C. The autosampler used to analyze all samples was held at 10°C. The measurements were conducted using a multiple reaction monitoring (MRM) scanning mode with an electrospray ionization (ESI) source in positive ion mode. At a flow rate of 0.40 mL/min, the mobile phase was consisted of acetonitrile (A) and 0.1% formic acid aqueous solution (B), with a linear gradient scheme as follows: 0–0.5 min, A/B = 10/90%; 0.5–1.0 min, A/B = 90/10%; 1.0–1.4 min, A/B = 90/10%; 1.4–1.5 min, A/B = 10/90%; 1.5–2.0 min, A/B = 10/90%. The parameters optimized for mass spectrometry of sulfatinib and IS included cone voltages of 20 V and 30 V, and collision energies of 25 eV and 28 eV, respectively. The parent and daughter ions of sulfatinib and IS were m/z 480.98 → 329.02 and m/z 426.87 → 369.84, respectively (as indicated in Table 1).
The protein was precipitated by mixing 300 µL of acetonitrile and 10 µL of IS working solution into 100 µL of plasma. After a full vortex for 2.0 min, the mixture was centrifuged at 4°C for 10 min (13,000 rpm). Afterwards, the supernatant of 100 µL was moved into a vial, with a 2 µL injected and analyzed by UPLC-MS/MS.
Ten male Sprague-Dawley (SD) rats for this experiment, weighting 200 ± 10 g, were purchased from the Experimental Animal Center of The First Affiliated Hospital of Wenzhou Medical University (Zhejiang, China). Prior to the start of the investigation, all rats were domesticated under laboratory conditions for 1 week to minimize their suffering. The animals were kept in an appropriate environment (temperature, humidity, light conditions, freely available food and water). The experimental process of the animals was strictly adhered to the regulations for the care and use of laboratory animals as reviewed and approved by the Ethics Committee of The First Affiliated Hospital of Wenzhou Medical University (Wenzhou, China). The preparation of sulfatinib for gavage was carried out using 0.5% carboxymethylcellulose sodium (CMC-Na) solution. Half an hour after the administration of either myricetin or the same dose of 0.5% CMC-Na solution, 10 rats were simultaneously administered orally with sulfatinib (30 mg/kg). At 0.25, 0.5, 0.75, 1, 1.5, 2, 3, 4, 6, 8, 12, 24, 48 h, approximately 0.3 mL of blood was obtained from the tail vein of SD rats and transferred into heparinized polyethylene tubes. A 100 µL of plasma was obtained by centrifuging the blood at 13,000 rpm for 8 min and stored at −80°C for sample treatment.
Origin 9.0 (Originlab Inc., Northampton, MA, United States) was used in this experiment to plot the mean concentration of sulfatinib versus time in plasma. DAS software (Drug and Statistics, Version 3.0, China) was applied to fit the non-compartmental model of sulfatinib, and the main pharmacokinetic parameters of sulfatinib were obtained. Pharmacokinetics were compared for each group using SPSS software (version 24.0, Chicago, United States, SPSS Inc.) using the independent samples t-test. At p < 0.05, the difference was significant.

CYP3A4 = test system: CYP3A4; design: method as in Li et al., 2018; conditions: studies in rats; ref Li et al., 2018; cited from earlier work
CYP2C9 = test system: CYP2C9; design: method as in Li et al., 2018; conditions: studies in rats; ref Li et al., 2018; cited from earlier work
[2] = Stability of sulfatinib in rat plasma QCs under storage and processing conditions; conditions: analyzer 10°C for 4 h, −80°C for 3 weeks, room temperature for 3 h, three freeze-thaw cycles; QCs 2, 800, 1,600 ng/mL
Experimental: The stability was investigated by repeating the assay five times under different storage conditions for three rat plasma QCs (2, 800 and 1,600 ng/mL). The conditions included stability in the analyzer (4 h, 10°C), long-term storage ([…], 3 weeks), short-term storage (3 h, room temperature) and freeze-thaw cycles (three complete times).

[3] = design: method as in Li et al., 2020a; conditions: healthy subjects, single oral intake of 300 mg; ref Li et al., 2020a; cited from earlier work
[4] = cited from earlier work
[5] = test system: cytochrome P450 3A4 (CYP3A4); design: method as in Li et al., 2020b; conditions: in vitro; ref Li et al., 2020b; cited from earlier work
[6] = male, Sprague-Dawley, rat, in vivo, po, 30 mg/kg

Structure (SMILES): O=c1c(O)c(-c2cc(O)c(O)c(O)c2)oc2cc(O)cc(O)c12 [myricetin, Myricetin]
effect of myricetin on AUC0→∞ and Cmax of sulfatinib ([1]; rats, 50 mg/kg myricetin orally half an hour before 30 mg/kg sulfatinib, P > 0.05): no significant effect | inhibition of CYP3A4 (CYP3A4): inhibited | inhibition of CYP2C9 (CYP2C9): inhibited

AUC0→t [1, 6]: 9,168.6 ± 2,531.4 ng/mL·h | AUC0→∞ [1, 6]: 9,171.6 ± 2,532.4 ng/mL·h | CLz/F [1, 6]: 58.3 ± 18.3 mL/min/kg | Tmax [1, 6]: 4.4 ± 0.9 h | AUC(0-t) ([1]; male, Sprague-Dawley, rat, in vivo, po, 30 mg/kg, AUC0→t): 9250 ng·h/mL | AUC(0-inf) ([1]; male, Sprague-Dawley, rat, in vivo, po, 30 mg/kg, AUC0→∞): 9260 ng·h/mL | CL/F ([1]; male, Sprague-Dawley, rat, in vivo, po, 30 mg/kg, CLz/F): 55 mL/min/kg | Cmax ([1]; male, Sprague-Dawley, rat, in vivo, po, 30 mg/kg, Cmax): 1040 ng/mL | Tmax ([1]; male, Sprague-Dawley, rat, in vivo, po, 30 mg/kg, Tmax): 3.4 ± 1.7 h | half-life ([1]; male, Sprague-Dawley, rat, in vivo, po, 30 mg/kg, t1/2): 3.64 h | AUC ([1]; rat, in vivo, po, 30 mg/kg): 8970 ng·h/mL | time to Cmax ([1]; rat, in vivo, po, 30 mg/kg): approximately 3.8 h | stability in rat plasma [2]: satisfied
Structure (SMILES): Cc1cc2cc(Oc3ccnc(Nc4cccc(CS(=O)(=O)NCCN(C)C)c4)n3)ccc2[nH]1 [Sulfatinib]
AUC [3]: 2670 ng·h/mL | Cmax [3]: 205 ng/mL | t1/2 [3]: 17.1 h | time to Cmax [3]: approximately 2 h | serum level of the original drug ([4]; after oral administration, ref Li et al., 2020b): about 40.3% | fecal excretion ([4]; excretion route mainly fecal, ref Lu et al., 2024, Xu et al., 2017, Li et al., 2020a): 88% | enzyme mediating the metabolism [5]: major enzyme mediating the metabolism
